# Like-named read-outs stand apart in the source and are kept apart here.
# Experiments:
# mouse sEH = molecular target: T1, mouse sEH (Mus musculus, UniProt P34914); test: sEH inhibition assay; format: biochemical
# T1 sequence (P34914 1-554): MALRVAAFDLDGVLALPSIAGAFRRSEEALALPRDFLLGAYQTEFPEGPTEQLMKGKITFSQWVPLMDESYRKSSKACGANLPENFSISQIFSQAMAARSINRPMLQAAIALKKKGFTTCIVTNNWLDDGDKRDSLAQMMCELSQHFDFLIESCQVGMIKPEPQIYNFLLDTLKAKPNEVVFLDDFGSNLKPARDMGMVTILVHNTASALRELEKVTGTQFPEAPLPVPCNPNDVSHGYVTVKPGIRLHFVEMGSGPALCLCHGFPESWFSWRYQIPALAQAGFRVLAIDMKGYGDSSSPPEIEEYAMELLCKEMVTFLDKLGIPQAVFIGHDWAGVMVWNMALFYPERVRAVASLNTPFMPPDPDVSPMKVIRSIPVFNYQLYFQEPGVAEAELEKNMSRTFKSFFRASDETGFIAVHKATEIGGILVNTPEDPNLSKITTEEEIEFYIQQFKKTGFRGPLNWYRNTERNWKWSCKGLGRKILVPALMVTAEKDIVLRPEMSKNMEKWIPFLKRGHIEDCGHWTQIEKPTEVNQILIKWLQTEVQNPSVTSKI
# human sEH = molecular target: T2, human sEH (Homo sapiens, UniProt P34913); test: sEH inhibition assay; format: biochemical; settings: CMNPC 5 μM, pH 7.4, 30 °C
# T2 sequence (P34913 1-555): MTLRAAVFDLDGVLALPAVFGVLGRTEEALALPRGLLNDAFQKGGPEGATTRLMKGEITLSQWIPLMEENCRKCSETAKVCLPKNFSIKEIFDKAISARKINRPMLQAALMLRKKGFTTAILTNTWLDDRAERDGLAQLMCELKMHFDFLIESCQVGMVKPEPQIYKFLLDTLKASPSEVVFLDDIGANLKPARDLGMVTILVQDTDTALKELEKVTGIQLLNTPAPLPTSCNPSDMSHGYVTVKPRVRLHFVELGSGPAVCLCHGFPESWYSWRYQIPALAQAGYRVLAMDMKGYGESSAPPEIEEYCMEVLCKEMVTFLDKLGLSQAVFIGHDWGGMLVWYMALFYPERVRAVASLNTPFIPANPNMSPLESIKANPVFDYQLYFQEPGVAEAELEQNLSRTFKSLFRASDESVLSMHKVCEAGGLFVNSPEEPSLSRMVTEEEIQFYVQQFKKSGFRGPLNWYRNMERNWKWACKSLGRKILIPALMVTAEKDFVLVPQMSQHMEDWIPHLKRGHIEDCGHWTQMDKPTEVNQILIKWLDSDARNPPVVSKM
# rat sEH = molecular target: T3, rat sEH (Rattus norvegicus, UniProt P80299); test: sEH inhibition assay; format: biochemical
# T3 sequence (P80299 1-554): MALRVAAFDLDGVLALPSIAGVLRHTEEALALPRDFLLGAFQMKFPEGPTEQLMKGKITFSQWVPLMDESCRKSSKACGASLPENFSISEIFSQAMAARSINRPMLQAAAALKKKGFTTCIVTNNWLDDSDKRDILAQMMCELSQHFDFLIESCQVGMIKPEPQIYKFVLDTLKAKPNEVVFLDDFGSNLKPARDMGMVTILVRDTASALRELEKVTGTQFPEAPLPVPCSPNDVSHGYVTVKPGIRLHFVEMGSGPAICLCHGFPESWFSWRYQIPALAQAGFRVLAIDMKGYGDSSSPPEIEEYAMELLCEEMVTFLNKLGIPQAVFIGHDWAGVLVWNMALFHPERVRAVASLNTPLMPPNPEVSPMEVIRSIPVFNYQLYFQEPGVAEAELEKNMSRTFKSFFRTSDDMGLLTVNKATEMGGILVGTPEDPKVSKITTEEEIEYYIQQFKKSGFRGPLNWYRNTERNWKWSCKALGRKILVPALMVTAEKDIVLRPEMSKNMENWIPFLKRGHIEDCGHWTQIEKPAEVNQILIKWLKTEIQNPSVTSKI
# human FAAH = molecular target: T4, human FAAH (Homo sapiens, UniProt O00519); test: FAAH inhibition assay; format: biochemical; settings: OMP 50 μM, pH 8, 37 °C
# T4 sequence (O00519 1-579): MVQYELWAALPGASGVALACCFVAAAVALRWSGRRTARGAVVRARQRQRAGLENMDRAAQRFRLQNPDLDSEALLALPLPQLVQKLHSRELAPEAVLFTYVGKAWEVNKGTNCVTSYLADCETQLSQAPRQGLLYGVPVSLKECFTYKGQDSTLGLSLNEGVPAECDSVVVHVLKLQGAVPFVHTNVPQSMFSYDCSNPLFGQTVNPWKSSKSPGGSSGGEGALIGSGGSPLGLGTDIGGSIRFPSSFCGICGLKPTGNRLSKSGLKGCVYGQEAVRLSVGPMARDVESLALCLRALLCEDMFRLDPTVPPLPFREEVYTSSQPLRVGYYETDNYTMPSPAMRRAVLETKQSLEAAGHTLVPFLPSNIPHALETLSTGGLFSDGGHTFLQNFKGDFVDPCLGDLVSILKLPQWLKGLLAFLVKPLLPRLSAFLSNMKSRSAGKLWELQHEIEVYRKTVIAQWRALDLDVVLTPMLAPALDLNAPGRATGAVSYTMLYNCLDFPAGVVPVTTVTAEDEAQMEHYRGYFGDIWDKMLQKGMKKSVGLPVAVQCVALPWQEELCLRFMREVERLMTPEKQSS
# [1] = Microsomal liver stability assay, human; format: in vitro ADME; settings: pH 7.4
# [2] = Microsomal liver stability assay, rat; format: in vitro ADME; settings: both, pH 7.4
# [3] = Microsomal liver stability assay, mouse; format: in vitro ADME; settings: pH 7.4
# [4] = Human sEH IC50, human recombinant sEH
# [5] = Human FAAH IC50, human recombinant FAAH
# [6] = read-out: Rat sEH IC50, rat sEH, CMNPC 5 μM, pH 7.4, 30 °C
SMILES,IC50 (mouse sEH),IC50 (human sEH; [4]),IC50 (rat sEH),IC50 (human FAAH; [5]),other results
"O=C(Nc1ccc(-c2nc3ccccc3s2)cc1)C1CCN(S(=O)(=O)c2c(Cl)cc(Br)cc2Cl)CC1 [Compound 7k, N-(4-(benzo[d]thiazol-2-yl)phenyl)-1-((4-bromo-2,6-dichlorophenyl)sulfonyl)piperidine-4-carboxamide]",1790 nM,41 nM,42.5 nM,0.0897 µM,–
"O=C(Nc1ccc(-c2nc3ccccc3s2)cc1)C1CCN(S(=O)(=O)c2cc(C(F)(F)F)cc(C(F)(F)F)c2)CC1 [Compound 7j, N-(4-(benzo[d]thiazol-2-yl)phenyl)-1-((3,5-bis(trifluoromethyl)phenyl)sulfonyl)piperidine-4-carboxamide]",> 10000 nM,4840 nM,2910 nM,0.0419 µM,–
"O=C(Nc1ccc(-c2nc3ccccc3s2)cc1)C1CCN(S(=O)(=O)c2ccc(C(F)(F)F)cc2)CC1 [Compound 7d, N-(4-(benzo[d]thiazol-2-yl)phenyl)-1-((4-(trifluoromethyl)phenyl)sulfonyl)piperidine-4-carboxamide]",9180 nM,51.5 nM,28.9 nM,0.0481 µM,–
"O=C(Nc1ccc(-c2nc3ccccc3s2)cc1)C1CCN(S(=O)(=O)c2ccc([N+](=O)[O-])cc2)CC1 [Compound 7e, N-(4-(benzo[d]thiazol-2-yl)phenyl)-1-((4-nitrophenyl)sulfonyl)piperidine-4-carboxamide]",> 10000 nM,–,4480 nM,–,–
"O=C(Nc1ccc(-c2nc3ccccc3s2)cc1)C1CCN(S(=O)(=O)c2ccc(C(F)(F)F)cc2Cl)CC1 [Compound 7g, N-(4-(benzo[d]thiazol-2-yl)phenyl)-1-((2-chloro-4-(trifluoromethyl)phenyl)sulfonyl) piperidine-4-carboxamide]",–,–,–,–,"IC50 (mouse sEH; read-out: Mouse sEH IC50, mouse sEH, CMNPC 5 μM, pH 7.4, 30 °C): 9060 nM; IC50 (human sEH; read-out: Human sEH IC50, human recombinant sEH): 432 nM; IC50 (rat sEH; [6]): 859 nM; IC50 (human FAAH; read-out: Human FAAH IC50, human recombinant FAAH): 0.0266 µM"
"O=C(Nc1ccc(OC(F)(F)F)cc1)NC1CCC(Oc2ccc(C(=O)O)cc2)CC1 (stereo not shown) [t-TUCB, reference compound]",–,–,–,–,IC50 (rat sEH; [6]): 9.3 nM
"O=C(Nc1ccc(-c2nc3ccccc3s2)cc1)C1CCN(S(=O)(=O)c2ccc(F)cc2Cl)CC1 [Compound 7f, N-(4-(benzo[d]thiazol-2-yl)phenyl)-1-((2-chloro-4-fluorophenyl)sulfonyl)piperidine-4-carboxamide]",267 nM,16.9 nM,116 nM,0.0191 µM,–
"O=C(Nc1ccc(-c2nc3ccccc3s2)cc1)C1CCN(S(=O)(=O)c2ccccc2C(F)(F)F)CC1 [Compound 7a, N-(4-(benzo[d]thiazol-2-yl)phenyl)-1-((2-(trifluoromethyl)phenyl)sulfonyl)piperidine-4-carboxamide]",7210 nM,3.1 nM,5.7 nM,0.0097 µM,half-life at 1 μM ([1]; human liver microsomes): 24 min; microsomal CLint at 1 μM ([1]; human liver microsomes): 57 µL/min/mg; half-life at 1 μM ([2]; rat liver microsomes): 14.7 min; microsomal CLint at 1 μM ([2]; rat liver microsomes): 94 µL/min/mg; half-life at 1 μM ([3]; mouse liver microsomes): 15.8 min; microsomal CLint at 1 μM ([3]; mouse liver microsomes): 87 µL/min/mg
"O=C(Nc1ccc(-c2nc3ccccc3s2)cc1)C1CCN(S(=O)(=O)c2ccc(F)cc2Br)CC1 [Compound 7h, N-(4-(benzo[d]thiazol-2-yl)phenyl)-1-((2-bromo-4-fluorophenyl)sulfonyl)piperidine-4-carboxamide]",402 nM,8.2 nM,11.8 nM,0.0289 µM,–
"N#Cc1ccccc1S(=O)(=O)N1CCC(C(=O)Nc2ccc(-c3nc4ccccc4s3)cc2)CC1 [Compound 7b, N-(4-(benzo[d]thiazol-2-yl)phenyl)-1-((2-cyanophenyl)sulfonyl)piperidine-4-carboxamide]",578 nM,19.5 nM,185 nM,0.287 µM,–
"C[C@]12CC[C@H]3[C@@H](CCC4=CC(=O)CC[C@@]43C)[C@@H]1CC[C@@H]2O [Testosterone (control), testosterone, reference compound]",–,–,–,–,microsomal CLint at 1 μM ([1]; microsomes): 61 µL/min/mg; half-life at 1 μM ([2]; microsomes): 1.1 min; microsomal CLint at 1 μM ([2]; microsomes): 1250 µL/min/mg; microsomal CLint at 1 μM ([3]; microsomes): 280 µL/min/mg
"O=C(Nc1ccc(-c2nc3ccccc3s2)cc1)C1CCN(S(=O)(=O)c2cccc(C(F)(F)F)c2)CC1 [Compound 7c, N-(4-(benzo[d]thiazol-2-yl)phenyl)-1-((3-(trifluoromethyl)phenyl)sulfonyl)piperidine-4-carboxamide]",4310 nM,89.3 nM,124 nM,0.0223 µM,–

# Reference: publication PMC9879382 (Prostaglandins & other lipid mediators, 2022)
